Data on 3 molecules can be found in patent publication US12037644B2, “Use of FGFR mutant gene panels in identifying cancer patients that will be responsive to treatment with an FGFR inhibitor” (Janssen Pharmaceutica NV, priority 2014, dated 2024).

For assay [1], the system named is RK3E-Transgene TACC3-V3 (FGFR fusion stably transfected RK3E cells). Briefly: Drug response testing (Cell Titer-Glo proliferation), RK3E FGFR3:TACC3 v3. The following applies: Rattus norvegicus, 72 h, read-out: Stimulated Proliferation (IC50). In general terms: ATP-based viability assays read luminescence as a measure of living cells.
Procedure: (§1) RK3E (rat kidney epithelial cells) cells were purchased from ATCC (Manassas, VA, USA) and cultured in DMEM supplemented with FBS and antibiotics (Invitrogen, Grand Island, NY, USA).
(§2) After 24 hours, cells were serum starved overnight, then re-fed with 0.5% FBS growth media. […] The Microtiter plates were then incubated for 72 hours and assayed for adenosine triphosphate (ATP; a marker of metabolically active cells) content using the Cell Titer-Glo® Luminescent Cell Viability assay (Promega Corp., Madison, WI, USA) following the manufacturer's instructions, with modifications. Briefly, cells were allowed to equilibrate to room temperature, at which time a 1:1 mixture of Cell Titer-Glo® reagent was added. Cells were then placed on an orbital shaker for 2 minutes and incubated for 10 minutes at room temperature to stabilize the luminescent signal. The luminescence was quantified and measurements were conducted using an Envision Multilabel plate reader (Perkin Elmer; Waltham, MA, USA).
The subject of assay [2] is RK3E-Transgene Vector (empty vector control RK3E cells). The experiment in a line: Drug response testing (Cell Titer-Glo proliferation), RK3E empty vector control. The conditions noted are these: Rattus norvegicus, 72 h, read-out: Stimulated Proliferation (IC50).
Procedure: as §2
Another assay relates to RK3E-Transgene FGFR3. Briefly: Drug response testing (Cell Titer-Glo proliferation), RK3E FGFR3. The conditions noted are these: Rattus norvegicus, 72 h, read-out: Stimulated Proliferation (IC50).
For assay [3], the system named is FGFR fusion stably transfected RK3E cells. The experiment in a line: Drug response testing for FGFR-fusion overexpressing cell lines (overall statement). The conditions noted are these: for sensitivity of cells harboring the FGFR fusions to the FGFR inhibitor in vitro: empty vector control did not show sensitivity.
Procedure: as §2
Assay [4] concerns RK3E-Transgene BAIA2PL1 (FGFR fusion stably transfected RK3E cells). The experiment in a line: Drug response testing (Cell Titer-Glo proliferation), RK3E FGFR3:BAIAP2L1. The following applies: Rattus norvegicus, 72 h, read-out: Stimulated Proliferation (IC50).
Procedure: as §2
In a further assay the test system is RK3E-Transgene KRAS. The experiment in a line: Drug response testing (Cell Titer-Glo proliferation), RK3E KRAS. The following applies: Rattus norvegicus, 72 h, read-out: Stimulated Proliferation (IC50).
Assay [5] relates to phosphorylation of FGFR, MAPK and S6 in FGFR fusion stably transfected RK3E cells. The experiment in a line: Downstream target expression (immunoblotting). It counts as cell-based, rat. The following applies: 1 μM, in the presence of ligands, 1 hour; FIGS. 14A-14H. The method, then: For immunoblotting, whole cell lysates were collected in RIPA buffer (Thermo Scientific, Waltham, MA, USA) and sample protein concentration was assayed using BCA Protein Assay (Thermo Scientific). Equal amounts of protein (30 μg per lane) were loaded onto on 4-12% Bis-Tris gels (Invitrogen) before an SDS-page was performed. Proteins were transferred to nitrocellulose membranes and probed with antibodies against p-FGFR, total-FGFR2, p-MAPK, total-MAPK, p-S6, total S6, B-actin (Cell Signaling Technology, Danvers, MA, USA), and total-FGFR3 (Santa Cruz, Dallas, TX, USA). The membranes were blocked with Odyssey blocking buffer for 1 h at room temperature and incubated overnight at 4° C. in a primary antibody solution diluted in Odyssey blocking buffer (1:1000). After three washes in 0.1% Tween tris buffered saline (TBST), the membranes were probed with goat anti-mouse or donkey anti-rabbit IR-Dye […] or 800 cw labeled secondary antisera in Odyssey blocking buffer for 1 h at room temperature. Washes were repeated after secondary labeling and the membranes were imaged using a LiCor Odyssey scanner and the Odyssey 3.0 analytical software (LiCor, Lincoln, NE, USA).
A general note: Immunoblotting shows a protein as a band on a membrane.

Assay [6] concerns RK3E-Transgene TACC3-V1 (FGFR fusion stably transfected RK3E cells). The experiment in a line: Drug response testing (Cell Titer-Glo proliferation), RK3E FGFR3:TACC3 v1. The following applies: Rattus norvegicus, 72 h, read-out: Stimulated Proliferation (IC50).
Procedure: as §1, §2
Assay [7] concerns advanced solid tumors (patients with FGFR fusion genes / FGFR aberrations). Briefly: Phase I First-In-Human study in patients with advanced solid tumor. It counts as in vivo. The conditions noted are these: FIG. 11.
The subject of assay [8] is RK3E-Transgene OFD1 (FGFR fusion stably transfected RK3E cells). The experiment in a line: Drug response testing (Cell Titer-Glo proliferation), RK3E FGFR2:OFD1. The following applies: Rattus norvegicus, 72 h, read-out: Stimulated Proliferation (IC50).
Source text: (§3) RK3E (rat kidney epithelial cells) cells were purchased from ATCC (Manassas, VA, USA) and cultured in DMEM supplemented with FBS and antibiotics (Invitrogen, Grand Island, NY, USA). FGFR fusion gene constructs were designed and cloned into the pReceiver expression vector (Genecopoeia, Rockville, MD, USA), which contains an HA-tag. Clones were transfected into RK3E cells using the Amaxa Cell Line Nucleofector (Lonza, Basel, Switzerland) following the manufacturer's protocol. The stably transfected cells were selected in complete medium with 800 ug/ml of G418 (Invitrogen).
as §2
Another assay concerns RK3E-Transgene FGFR2. The experiment in a line: Drug response testing (Cell Titer-Glo proliferation), RK3E FGFR2. The following applies: Rattus norvegicus, 72 h, read-out: Stimulated Proliferation (IC50).
The test system of assay [9] is RK3E-Transgene CCDC6 (FGFR fusion stably transfected RK3E cells). Briefly: Drug response testing (Cell Titer-Glo proliferation), RK3E FGFR2:CCDC6. The conditions noted are these: Rattus norvegicus, 72 h, read-out: Stimulated Proliferation (IC50).
Source text: as §3, §2
The test system of assay [10] is RK3E-Transgene AFF3 (FGFR fusion stably transfected RK3E cells). Briefly: Drug response testing (Cell Titer-Glo proliferation), RK3E FGFR2:AFF3. The conditions noted are these: Rattus norvegicus, 72 h, read-out: Stimulated Proliferation (IC50).
Procedure: as §1, §2
In assay [11] the test system is RK3E-Transgene BICC1 (FGFR fusion stably transfected RK3E cells). The experiment in a line: Drug response testing (Cell Titer-Glo proliferation), RK3E FGFR2:BICC1. The conditions noted are these: Rattus norvegicus, 72 h, read-out: Stimulated Proliferation (IC50).
Procedure: as §1, §2
The test system of assay [12] is RK3E-Transgene CASP7 (FGFR fusion stably transfected RK3E cells). The experiment in a line: Drug response testing (Cell Titer-Glo proliferation), RK3E FGFR2:CASP7. The conditions noted are these: Rattus norvegicus, 72 h, read-out: Stimulated Proliferation (IC50).
Source text: as §3, §2

Procedure for RK3E-Transgene FGFR2: as §1, §2
Procedure for RK3E-Transgene FGFR3: as §2
Procedure for RK3E-Transgene KRAS: as §2

Take `COc1cc(CCc2cc(NC(=O)c3ccc(N4C[C@@H](C)N[C@@H](C)C4)cc3)n[nH]2)cc(OC)c1` [AZD4547, N-[5-[2-(3,5-Dimethoxyphenyl)ethyl]-2H-pyrazol-3-yl]-4-(3,5-diemthylpiperazin-1-yl)benzamide]: the IC50 in assay [1] worked out at 8.66 nM; in [2], 8010 nM; in the assay on RK3E-Transgene FGFR3 it was 5690 nM; in assay [4], 11.5 nM; with RK3E-Transgene KRAS, 1480 nM; in assay [6], 16.5 nM. The “sensitivity of cells harboring the FGFR fusions to the FGFR inhibitor in vitro” value in assay [3] was “showed sensitivity”. Besides, the “phosphorylation of FGFR and downstream targets MAPK and S6 (immunoblot)” value (from here on “phosphorylation”) in [5] was “inhibited phosphorylation of FGFR and downstream targets i.e. MAPK and S6”.
Consider `COc1cc(OC)cc(N(CCNC(C)C)c2ccc3ncc(-c4cnn(C)c4)nc3c2)c1` [JNJ-42756493, N-(3,5-dimethoxyphenyl)-N′-(1-methylethyl)-N-[3-(1-methyl-1H-pyrazol-4-yl)quinoxalin-6-yl]ethane-1,2-diamine], for which the “clinical responses (RECIST)” value in assay [7] (9 mg once a day (QD), 12 mg QD and 12 mg 7d on/off, patients with the FGFR fusion genes) is reported as “Significant clinical responses”. For the same molecule, the “maximal percentage reduction of sum of the diameters of targeted lesions from baseline (RECIST)” value in [7] (dose level >= 6 mg, daily or intermittent (7 days on - 7 days off), patients whose tumors harbor FGFR gene translocations and mutations) is recorded as “appear to be more sensitive”. In addition, the “sensitivity when compared to AZD4547 and NVP-BGJ398” value in [3] (nanomolar concentration range) was “enhanced sensitivity”. For the same molecule, in [5], the “phosphorylation” value is “inhibited phosphorylation of FGFR and downstream targets i.e. MAPK and S6”.
Regarding `CCN1CCN(c2ccc(Nc3cc(N(C)C(=O)Nc4c(Cl)c(OC)cc(OC)c4Cl)ncn3)cc2)CC1` [NVP-BGJ398, 3-(2,6-Dichloro-3,5-dimethoxy-phenyl)-1-{6-[4-(4-ethyl-piperazin-1-yl)-phenylamino]-pyrimid-4-yl}-1-methyl-urea], the IC50 in [8] is 16 nM; in [1] it was 4.09 nM; in assay [2], over 10000 nM; with RK3E-Transgene FGFR3 it was 6340 nM; in the assay on RK3E-Transgene FGFR2, over 10000 nM; in assay [4], 5.16 nM. Further, the IC50 with RK3E-Transgene KRAS stood at 2140 nM; in assay [9], 10.7 nM; in assay [10], 2.27 nM; in assay [11], 18.2 nM; in assay [6], 2.59 nM; in [12] it was 242 nM. The “sensitivity of cells harboring the FGFR fusions to the FGFR inhibitor in vitro” value in assay [3] was “showed sensitivity”. In addition, the “phosphorylation” value in assay [5] was “inhibited phosphorylation of FGFR and downstream targets i.e. MAPK and S6”.
